Data set [1] can be described thus: Half life was determined. To be noted: rat. It counts as ADME.
Data set [2] can be described thus: Toxicity in mice 24 hr after ip administration. To be noted: mouse, in vivo. It counts as organism-based.
Data set [3] can be described thus: Second order rate constant was determined. The class given is functional.
A short description of data set [4]: Rate constant was determined. It counts as functional.

The values that follow come from ChEMBL document CHEMBL1122105, “Synthesis, decomposition kinetics, and preliminary toxicological studies of pure N-acetyl-p-benzoquinone imine, a proposed toxic metabolite of acetaminophen” (J Med Chem, 1982).

Usually half-life stands for how long it takes for the measured level to halve. In general, LD50 refers to the dose at which mortality reaches 50%. Read a low LD50 as a more toxic substance. `CC(=O)N=C1C=CC(=O)C=C1` showed a half-life in data set [1] of 11 min. This molecule had an LD50 at 24 h in data set [2] of 20 mg/kg. The molecule further had a Second order in data set [3] of 0.625 M/s. The molecule further came in with a Rate constant in data set [4] of 0.00011 M/s.

As to `CC(=O)Nc1ccc(O)cc1` [ACETAMINOPHEN], the LD50 at 24 h in data set [2] is 500 mg/kg.
